Where only a bound is given, the exact number is not on record here.

Data set [1] has as its target T1, CCld (Cyanothece sp. PCC 7425, UniProt B8HNS6).
T1 construct: gene Cyan7425_1434
The experiment in a line: UV-vis titration. It is filed as binding. The following applies: read-out: dissociation constant.

The target of data set [2] is Arg127 (UniProt position 127, LPGVARRLLHC). Put plainly: neutron. The note with it: 293 K; 0.15 M MgSO4; 0.1 M glycine-NaOH pH 9.0, 0.15 M MgSO4, 30% PEG 3350, 5% glycerol; Ferric CCld crystal, hydroxide (OD-) bound to the haem iron, Arg127 in the 'out' conformation.

T1 sequence (B8HNS6 entry or part of it): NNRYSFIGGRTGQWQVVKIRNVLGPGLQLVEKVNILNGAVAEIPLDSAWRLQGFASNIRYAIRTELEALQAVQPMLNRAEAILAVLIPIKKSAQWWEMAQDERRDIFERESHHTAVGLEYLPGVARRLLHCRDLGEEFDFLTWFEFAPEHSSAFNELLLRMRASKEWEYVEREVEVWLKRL

On to `N#CS` [SCN^–, thiocyanate], for which, in data set [1], the Kd was 0.074 mM. In the case of “Chlorite dismutase (CCld) (Cyanothece sp. PCC7425)”, the pKa in data set [2] was >9.0 (protonated at pH 9.0).

For `F` [F^–, fluoride], the Kd in data set [1] turned out to be 12.6 mM.

(Values after article PMC5678291, “Molecular Mechanism of Enzymatic Chlorite Detoxification: Insights from Structural and Kinetic Studies” (ACS Catalysis, 2017).)
